Experimental data reported in patent US5795890A, “Sulfonamide derivatives” (ONO Pharmaceutical Co., Ltd., priority 1995, dated 1998).
Where a name gives a salt, the structure may show the parent alone.

Columns and labels:
[1] = molecular target: T1, human polymorphonuclear elastase (HSE) (Homo sapiens, UniProt P08246); assay: Inhibitory effects on human polymorphonuclear elastase; format: biochemical; conditions: substrate Meo-Suc-Ala-Ala-Pro-Val-pNA; HEPES pH 8.0; preincubation 37° C. 20 min, incubation 5 min
T1 sequence (P08246 30-267): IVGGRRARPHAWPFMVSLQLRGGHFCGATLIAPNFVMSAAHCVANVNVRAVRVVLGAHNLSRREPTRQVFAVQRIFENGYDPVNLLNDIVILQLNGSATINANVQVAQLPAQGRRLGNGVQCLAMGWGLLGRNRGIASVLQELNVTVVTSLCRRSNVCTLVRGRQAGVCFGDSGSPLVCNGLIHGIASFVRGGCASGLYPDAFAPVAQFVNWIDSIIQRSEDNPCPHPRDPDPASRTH
Description: (1) Inhibitory effects on human polymorphonuclear elastase
A mixture with 0.5 ml of 0.2 mM HEPES buffer (pH 8.0), 0.2 ml of 2.5M NaCl, 0.1 ml of 1% polyethyleneglycol 6000, 0.13 ml of distilled water, test compound dissolved in 0.01 ml of dimethylsulfoxide (DMSO) and 0.05 ml of 0.8 Unit/ml human polymorphonuclearelastase (HSE) was preincubated at 37° C. for 20 min. 5 mM of Meo-Suc-Ala-Ala-Pro-Val-pNA (DMSO solution, 0.01 ml) was then added to the above mixture and was incubated at 37° C. for 5 min. The reaction was terminated by 0.1 ml of 50% acetic acid and the p-nitroanilide (pNA) released was measured spectrophotometrically at […]. Percent inhibition of a compound was calculated by the following equation.
Inhibition (%)=1-{derlat OD(test-blank)/deltaOD(control-blank)}×100

[2] = tested on: human polymorphonuclear elastase-induced lung hemorrhage; assay: Inhibitory effects on human polymorphonuclear elastase-induced lung hemorrhage in hamster; format: in vivo, Syrian hamster; conditions: oral, 60 min before intratracheal HSE 10 U/0.1 ml, blood in BALF; for inhibition at 500 mg/kg (%): 5 Syrian hamsters per group; for ED50: Homo sapiens, Syrian hamsters
Description: (2) Inhibitory effects on human polymorphonuclear elastase-induced lung hemorrhage in hamster
A test compound suspended in 0.5% Carboxymethylcellulose or 80% Polyethyleneglycol, 400 or 2% Tween 80 was administered orally to a group of 5 Syrian hamsters. At 60 min after the administration, 10 U/0.1 ml of HSE was injected intratracheally via surgically exposed trachea under pentobarbital anesthesia (60 mg/kg, i.p.) to induce lung injury. At 60 min after the injection, hamsters were bled to sacrifice and subjected to bronchoalveolar lavage with 2.5 ml of saline and recovered lavage solution (BALF). The recovered BALF (0.5 ml) was diluted by 4 times with 2% aqueous solution sodium carbonate and sonicated for 10 sec. The lavage fluid was further diluted by 2.5 times with 2% aqueous solution sodium carbonate and the amount of blood in BALF was calculated from absorbance at 414 nm using standard curve.

IC50 [1] [nM] | SMILES | inhibition at 500 mg/kg (%) [2] [%] | ED50 [2] [mg/kg]
13 | CCC(C(=O)Oc1ccc(S(=O)(=O)n2c(C(=O)O)cc3cc(OC)c(OC)cc32)cc1C)c1ccc(N2CCCC2)cc1 (racemic) [2(42), 4-(2-carboxy-5,6-dimethoxyindol-1-ylsulfonyl)-2-methylphenyl 2RS-(4-(pyrrolidin-1-yl)phenyl)butanoic acid ester] | 67 | –
6.8 | CCC(C(=O)Oc1ccc(S(=O)(=O)N2c3ccccc3CC2C(=O)O)cc1)c1ccccc1OC (racemic) [2(62), 4-(2RS-carboxyindolin-1-ylsulfonyl)phenyl 2RS-(2-methoxyphenyl)butanoic acid ester] | – | –
11 | CCC(C(=O)Oc1ccc(S(=O)(=O)n2c(C(=O)O)cc3ccccc32)cc1C)c1ccc(C)cc1 (racemic) [2(69), 4-(2-carboxyindol-1-ylsulfonyl)-2-methylphenyl 2RS-(4-methylphenyl)butanoicacid ester] | 83 | –
9.7 | CCC(C(=O)Oc1ccc(S(=O)(=O)NC23CC4CC(C2)CC(C(=O)O)(C4)C3)cc1)c1ccc(N2CCCC2)cc1 (racemic) [2(111), 4-(N-3-carboxyadamantan-1-ylsulfamoyl)phenyl 2RS-(4-(pyrrolidin-1-yl)phenyl)butanoic acid ester] | – | –
23 | CCC(C(=O)Oc1ccc(S(=O)(=O)Nc2ccccc2C(=O)NCC(=O)O)cc1)c1ccc2c(c1)OCO2 (racemic) [2(120), 4-(N-2-(N'-carboxymethylcarbamoyl)phenylsulfamoyl)phenyl 2RS-(1,3-benzodioxol-5-yl)butanoic acid ester] | – | –
8 | CCC(C(=O)Oc1ccc(S(=O)(=O)Nc2ccccc2C(=O)NCC(=O)O)cc1)c1ccc(OC)c(OC)c1 (racemic) [2(157), 4-(N-2-(N'-carboxymethylcarbamoyl)phenylsulfamoyl)phenyl 2RS-(3,4-dimethoxyphenyl)butanoic acid ester] | – | –
14 | CCC(C(=O)Oc1ccc(S(=O)(=O)Nc2ccccc2C(=O)NCC(=O)O)cc1)c1ccc(C)cc1 (racemic) [2(173), 4-(N-2-(N'-carboxymethylcarbamoyl)phenylsulfamoyl)phenyl 2RS-(4-methylphenyl)butanoic acid ester] | – | –
10 | CCC(C(=O)Oc1ccc(S(=O)(=O)Nc2ccccc2C(=O)NCC(=O)O)cc1)c1ccc(N(C)C)cc1 (racemic) [2(197), 4-(N-2-(N'-carboxymethylcarbamoyl)phenylsulfamoyl)phenyl 2RS-(4-(N,N-dimethylamino)phenyl)butanoic acid ester.hydrochloride] | – | –
17 | CCC(C(=O)Oc1ccc(S(=O)(=O)N2CCOCC2)cc1)c1ccc(N2CCCC2)cc1 (racemic) [Example 1(16), 4-(morpholin-4-ylsulfonyl)phenyl 2RS-(4-(pyrrolidin-1-yl)phenyl)butanoic acid ester] | – | –
19 | CCOC(=O)C(CN1CCOCC1)NS(=O)(=O)c1ccc(OC(=O)C(CC)c2ccc(N3CCCC3)cc2)cc1 (racemic) [Example 1(40), 4-(N-1RS-(ethoxycarbonyl)-2-(morpholin-4-yl)ethylsulfamoyl)phenyl 2RS-(4-(pyrrolidin-1-yl)phenyl)butanoic acid ester] | – | –
14 | CCC(C(=O)Oc1ccc(S(=O)(=O)NCC(N)=O)cc1)c1ccc(N2CCCC2)cc1 (racemic) [Example 1(56), 4-(N-(carbamoylmethyl)sulfamoyl)phenyl 2RS-(4-(pyrrolidin-1-yl)phenyl)butanoic acid ester] | – | –
– | CCC(C(=O)Oc1ccc(S(=O)(=O)NCC(O)CO)cc1C)c1ccc(C)cc1 (racemic) [Example 1(68), 4-(N-2RS,3-dihydroxypropylsulfamoyl)-2-methylphenyl 2RS-(4-methylphenyl)butanoic acid ester] | 51 | –
8 | CCC(C(=O)Oc1ccc(S(=O)(=O)NCCc2ccccn2)cc1)c1ccc(N2CCCC2)cc1 (racemic) [Example 1(78), 4-(N-2-(pyridin-2-yl)ethylsulfamoyl)phenyl 2RS-(4-(pyrrolidin-1-yl)phenyl)butanoic acid ester.2hydrochloride] | – | –
– | CCC(C(=O)Oc1ccc(S(=O)(=O)NC2CN3CCC2CC3)cc1C)c1ccc(N2CCCC2)cc1 (racemic) [Example 1(90), 4-(N-(quinuclidin-3RS-yl)sulfamoyl)-2-methylphenyl 2RS-(4-(pyrrolidin-1-yl)phenyl)butanoic acid ester] | 65 | –
18 | CCC(C(=O)Oc1ccc(S(=O)(=O)N2CSC[C@H]2C(=O)O)cc1)c1ccc(N2CCCC2)cc1 (stereo partly drawn) [2(77), 4-(4S-carboxyperhydrothiazol-3-ylsulfonyl)phenyl 2RS-(4-(pyrrolidin-1-yl)phenyl)butanoic acid ester.hydrochloride] | – | –
49 | O=C(O)CNC(=O)c1ccccc1NS(=O)(=O)c1ccc(OC(=O)C2(c3ccc([N+](=O)[O-])cc3)CCC2)cc1 [2(179), 4-(N-2-(N'-carboxymethylcarbamoyl)phenylsulfamoyl)phenyl 1-(4-nitrophenyl)cyclobutanecarboxylic acid ester] | – | –
22 | CC[C@H](C(=O)Oc1ccc(S(=O)(=O)N2CCc3cc([N+](=O)[O-])ccc32)cc1C)c1ccc(N2CCCC2)cc1 [Example 1(130), 4-(5-nitroindolin-1-ylsulfonyl)-2-methylphenyl 2S-(4-(pyrrolidin-1-yl)phenyl)butanoic acid ester] | – | –
24 | CC[C@H](C(=O)Oc1ccc(S(=O)(=O)NCCN2CCOCC2)cc1C)c1ccc(N2CCCC2)cc1 [Example 1(139), 4-(2-(morpholin-4-yl)ethylaminosulfonyl)-2-methylphenyl 2S-(4-(pyrrolidin-1-yl)phenyl)butanoic acid ester.2hydrochloride] | – | 192
12 | CCC(C(=O)Oc1ccc(S(=O)(=O)N2CCC[C@H]2C(=O)O)cc1)c1ccc(N2CCCC2)cc1 (stereo partly drawn) [Example 2(1), 4-(2S-carboxypyrrolidin-1-ylsulfonyl)phenyl 2RS-(4-(pyrrolidin-1-yl)phenyl)butanoic acid ester.hydrochloride] | – | –
12 | CCc1cc(S(=O)(=O)N2CCNCC2)ccc1OC(=O)[C@@H](CC)c1ccc(N2CCCC2)cc1 [Example 2(274), 4-(piperazin-4-ylsulfonyl)-2-ethylphenyl 2S-(4-(pyrrolidin-1-yl)phenyl)butanoic acid ester.2hydrochloride] | – | 132
9.3 | CC[C@H](C(=O)Oc1ccc(S(=O)(=O)N2CCNCC2)cc1C)c1ccc(N2CCCC2)cc1 [Example 2(276), 4-(piperazin-4-ylsulfonyl)-2-methylphenyl 2S-(4-(pyrrolidin-1-yl)phenyl)butanoic acid ester.2hydrochloride] | – | 73
55 | CCC(C(=O)Oc1ccc(S(=O)(=O)N2CCC[C@H]2C(=O)O)cc1C)c1ccc(N2CCCC2)cc1 (stereo partly drawn) [Example 2, 4-(2S-carboxypyrrolidin-1-ylsulfonyl)-2-methylphenyl 2RS-(4-(pyrrolidin-1-yl)phenyl)butanoic acid ester.hydrochloride] | 81 | –
